PubChem BioAssay (NCI)
Where “and” joins values, the source holds several entries; their conditions need not be identical. Equal values may be shown once.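 Grown in 96-well plates, cells were treated for 48 hours with each compound at five concentrations. Insufficient inhibition: endpoint recorded as highest concentration tested. GI50: concentration for 50% inhibition of growth. The concentration for full growth arrest is given as TGI.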

Assays:
Assay in all cases: inhibition of tumour cell growth, NCI panel, 48 h
[1] = tested on: HT29 colon
[2] = tested on: SF-539 CNS
[3] = tested on: SN12C renal
[4] = tested on: HS 578T breast
[5] = tested on: MALME-3M melanoma
[6] = tested on: SF-268 CNS
[7] = tested on: SK-OV-3 ovarian
[8] = tested on: A498 renal
[9] = tested on: SNB-19 CNS
[10] = tested on: 786-0 renal

SMILES | TGI [1] | TGI [2] | TGI [3] | TGI [4] [µM] | TGI [5] | TGI [6] | TGI [7] [µM] | TGI [8] | TGI [9] [µM] | TGI [10] [µM] | GI50 [1] [µM] | GI50 [2] [µM] | GI50 [3] [µM] | GI50 [5] [µM] | GI50 [6] [µM] | GI50 [8] [µM]
CC(C)(C)CC(C)(C)c1ccc(O)c(C[N+](C)(C)[O-])c1 | > 100 µM | > 100 µM | > 100 µM | > 100 | > 100 µM | > 100 µM | > 100 | > 100 µM | > 100 | > 100 | – | – | – | – | – | –
Cc1cc(S(=O)(=O)/N=C(/NN)NNc2cccc(C(F)(F)F)n2)c(S)cc1Cl | 43.1 µM | 43.6 µM | > 100 µM | 54.4 | 42.1 µM | 57.4 µM | 53 | 50.1 µM | 68.8 | 47.9 | – | – | – | – | – | –
O=c1c2ccccc2nc(N/N=C/c2ccccc2O)n1-c1ccccc1 | > 100 µM | > 100 µM | > 100 µM | 39.5 | > 100 µM | > 100 µM | > 100 | > 100 µM | > 100 | 2.86 | – | – | – | – | – | –
O=C1C(=Cc2ccc(Cl)c(Cl)c2)C([O-])=C([P+](c2ccccc2)(c2ccccc2)c2ccccc2)C([O-])=C1[P+](c1ccccc1)(c1ccccc1)c1ccccc1 | 4.05 µM | 5.17 µM | 6.47 µM | 12.7 | 4.9 µM | 3.94 µM | 4.48 | 31.9 µM | 6.35 | 4.18 | – | – | – | – | – | –
CCCCCCCCCCCCCC(=O)N(CCCCCCCCC)CC(O)C(O)C(OC1OC(CO)C(O)C(O)C1O)C(O)CO (stereo not given) | 33.3 µM | 51.3 µM | 37.1 µM | 51.9 | 35.7 µM | 39.4 µM | 30.8 | 35.9 µM | 44 | 32 | – | – | – | – | – | –
COc1ccc(C(=O)/C=C/c2cc(O)c(O)cc2F)c(OC)c1 | 26 µM | 31 µM | 18 µM | > 65.3 | 24.6 µM | 32.3 µM | 47.2 | 26.8 µM | 24.9 | 22.9 | – | – | – | – | – | –
CN1CCN(C2=CC(=O)c3c(O)ccc(O)c3C2=O)CC1 | 0.946 µM | 2.96 µM | 2.99 µM | 4.1 | 0.592 µM | 2.93 µM | > 10 | 2.87 µM | 3.05 | 3.91 | – | – | – | – | – | –
CC(=O)c1c2n(n(-c3ccccc3)c1=O)C(=O)c1nccnc1-2 | > 100 µM | > 100 µM | > 100 µM | > 100 | > 100 µM | > 100 µM | > 100 | > 100 µM | > 100 | > 100 | – | – | – | – | – | –
OC(CC(O)(C(F)(F)F)C(F)(F)F)c1ccc(C(O)CC(O)(C(F)(F)F)C(F)(F)F)cc1 (stereo not given) | 25.1 µM | 29.4 µM | – | 47.7 | 27.6 µM | 28.9 µM | 31.9 | 25.1 µM | 30.9 | 34.9 | – | – | – | – | – | –
[N-]=[N+]=Nc1c([N+](=O)[O-])c(=O)n2c3c(cccc13)CCC2 | 36.1 µM | 52.2 µM | 25.9 µM | > 77.3 | 4.27 µM | 21.3 µM | > 100 | 50.4 µM | > 100 | 30.9 | – | – | – | – | – | –
COC(=O)c1c(O)ccc2c1c1c(n2Cc2ccccc2)C(=O)c2ccccc2C1 | 37.4 µM | > 100 µM | 45.4 µM | > 100 | > 100 µM | > 100 µM | > 100 | > 100 µM | > 100 | > 100 | – | – | – | – | – | –
CC(C)(C)[Si](C)(C)OCC1OC(n2cnc3c(=O)[nH]c(N)nc32)C(O[Si](C)(C)C(C)(C)C)C1O[Si](C)(C)C(C)(C)C (stereo not given) | 4.16 µM | 5.72 µM | 5.02 µM | 7.65 | 4.02 µM | 7.16 µM | 4.45 | 6.21 µM | 6.14 | 4.88 | – | – | – | – | – | –
O=[N+]([O-])C(Cl)=C/C(=C(\Cl)SCc1ccccc1)[N+](=O)[O-] | 68.6 µM | 45 µM | 45.3 µM | > 100 | 57.8 µM | > 100 µM | > 100 | 81.4 µM | > 100 | 71.2 | – | – | – | – | – | –
C=C(C(=O)O[C@H]1C(=O)C2=C(C)CCC3C(=C)C(=O)O[C@@H]3C2[C@]1(C)O)C1CC[C@]2(C)CCCC(=C)[C@H]2C1 (stereo not given in full) | 13.5 µM and 10.8 µM | 16.5 µM and 10.3 µM | 15.5 µM and 8.62 µM | 15.8 | 16.3 µM and 31.1 µM | 14.8 µM and 11 µM | 30.5 | 6.88 µM and 26.1 µM | 26.6 | 4.29 | 1.59 | 7.16 | 7.25 | 15.5 | 7.47 | 0.0282
CC(=O)OC1COC(Nc2nc(N)n(C)c(=O)c2N=O)C(OC(C)=O)C1OC(C)=O (stereo not given) | > 10 µM | > 10 µM | > 10 µM | > 10 | > 10 µM | > 10 µM | > 10 | > 10 µM | > 10 | > 10 | – | – | – | – | – | –
C[C@H]1COC2=C1C(=O)C(=O)c1c2ccc2c1CCCC2(C)C | 7.39 µM | 18.2 µM | 21.1 µM | 9.55 | 2.07 µM | 44.4 µM | 83.6 | 52.6 µM | 66.4 | 35.2 | – | – | – | – | – | –
CC1(C)CCc2c(c(N=Nc3ccc(F)cc3)c3ccccc3c2O)O1 | 44.1 µM | > 100 µM | > 100 µM | > 100 | 68.5 µM | > 100 µM | > 100 | 88.8 µM | > 100 | > 100 | – | – | – | – | – | –

SMILES | TGI [1] | TGI [2] | TGI [3] | TGI [4] [µM] | TGI [5] | TGI [6] | TGI [7] [µM] | TGI [8] | TGI [9] [µM] | TGI [10] [µM] | GI50 [1] [µM] | GI50 [2] [µM] | GI50 [3] [µM] | GI50 [5] [µM] | GI50 [6] [µM] | GI50 [8] [µM]
Cn1c(O)c(C=Nc2ccccc2Cl)c(=O)n(C)c1=O | > 100 µM | 60.7 µM | > 100 µM | > 100 | > 100 µM | > 100 µM | > 100 | > 100 µM | 78.4 | 37.7 | – | – | – | – | – | –
S=c1[nH]c2ccc(I)cc2c(=S)n1Cc1ccccc1 | 38.9 µM | 37.2 µM | 13.4 µM | > 100 | 33.6 µM | 25.3 µM | > 100 | 55.4 µM | 48.6 | 21.4 | – | – | – | – | – | –
COc1cc(CS(=O)c2ccc(O)cc2)cc(OC)c1OC (stereo not given) | > 100 µM | > 100 µM | > 100 µM | > 100 | > 100 µM | > 100 µM | > 100 | > 100 µM | > 100 | > 100 | – | – | – | – | – | –
O=C(O)C(=O)/C=C(\O)c1ccc(Br)cc1 | > 100 µM | – | > 100 µM | > 100 | > 100 µM | > 100 µM | > 100 | > 100 µM | > 100 | > 100 | – | – | – | – | – | –
CN(Cc1cc(Cl)c(Cl)cc1NC(=O)CN)[C@H]1CCCC[C@@H]1N1CCCC1 | 47.9 µM | – | > 100 µM | 58.5 | 33.6 µM | > 100 µM | > 100 | 41.5 µM | > 100 | 33 | – | – | – | – | – | –
Cc1ccc(-n2cc([Si](C)(C)C)nn2)s1 | > 100 µM | > 100 µM | > 100 µM | > 100 | > 100 µM | > 100 µM | > 100 | > 100 µM | > 100 | > 100 | – | – | – | – | – | –
CCOc1ccc2c(c1)c(=O)c1c(NCCN(CC)CC)ccc3nnn2c31 | 32 µM | 24.1 µM | > 100 µM | > 100 | 33.8 µM | > 80.2 µM | > 100 | > 100 µM | > 100 | > 49 | – | – | – | – | – | –
CN(C)CCCNCc1cccc2ccccc12 | > 100 µM | > 100 µM | > 100 µM | > 100 | > 100 µM | > 100 µM | > 100 | > 100 µM | > 100 | > 100 | – | – | – | – | – | –
C=C1C(=O)OC2CC3(C)OC3CC/C(C)=C/C(OC(C)=O)C12 (stereo not given) | 13.5 µM | 16.8 µM | 26.3 µM | 42.9 | 5.9 µM | 34.8 µM | 37 | 29.9 µM | 31 | 14.2 | – | – | – | – | – | –
Oc1cc(Br)cc2cc(Cl)cnc12 | > 40.9 µM | > 100 µM | 45.1 µM | 12.1 | 30 µM | > 39.9 µM | > 68.9 | 22.9 µM | > 100 | 38.8 | – | – | – | – | – | –
CCN1CCC(O)(/C=C/c2ccc(C(C)C)cc2)C(C(=O)/C=C/c2ccc(C(C)C)cc2)C1 (stereo not given) | 6.21 µM | 4.58 µM | 6.06 µM | 5.68 | 10.5 µM | 4.31 µM | 31.8 | 19.1 µM | 15.5 | 3.4 | – | – | – | – | – | –
CC1=C(C)C(=O)C(C2=CC(=O)C=CC2=O)=C(C2=CC(=O)C=CC2=O)C1=O | > 100 µM | 51.7 µM | > 71.8 µM | > 100 | > 100 µM | > 100 µM | > 100 | > 100 µM | > 100 | > 100 | – | – | – | – | – | –
C=CCn1c(-c2ccc([N+](=O)[O-])cc2)csc1=N | > 100 µM | – | > 100 µM | > 100 | > 100 µM | > 100 µM | > 100 | > 100 µM | > 100 | > 100 | – | – | – | – | – | –
COC(=O)C1=C(C(=O)OC)SC2(S1)C(C(=O)OC)=C(C(=O)OC)Sc1c2ssc1=NC(C)(C)C | 2.57 µM | 2.69 µM | 2.52 µM | 18.5 | 5.09 µM | 4.72 µM | 18.1 | 3.48 µM | 9.77 | 2.62 | – | – | – | – | – | –
CCC(NC1=NCCO1)c1cccs1 (stereo not given) | 63.9 µM | 29.8 µM | – | 26.4 | 25.7 µM | – | 27.3 | 42.5 µM | 29.8 | 28.7 | – | – | – | – | – | –
c1ccc(CN2CCN3CCN(CC2)CCN(Cc2ccccc2)CC3)cc1 | 17.2 µM | 21.6 µM | 16.9 µM | 35.5 | 8.01 µM | 24.7 µM | 40 | 27.5 µM | 18.7 | 18.2 | – | – | – | – | – | –
